Measurements taken from ChEMBL document CHEMBL1255438, “Comparative activities of TR-700 (torezolid) against staphylococcal blood isolates collected in Spain” (2010).
Converted amounts (≈) assume the structure as drawn.

How the values were obtained:
Assay type in all cases: functional
[1] = tested on: Staphylococcus aureus; experiment: Antimicrobial activity against linezolid-resistant Staphylococcus aureus by CLSI method
[2] = tested on: Staphylococcus aureus; experiment: Antimicrobial activity against linezolid-susceptible Staphylococcus aureus assessed as inhibition of microbial growth at 0.5 ug/ml by CLSI method
[3] = tested on: Staphylococcus aureus; experiment: Antimicrobial activity against oxacillin-susceptible Staphylococcus aureus assessed as inhibition of microbial growth at =< 0.25 ug/ml by CLSI method
[4] = tested on: Staphylococcus; experiment: Antimicrobial activity against oxacillin-resistant coagulase-negative Staphylococcus aureus by CLSI method
[5] = tested on: Staphylococcus; experiment: Antimicrobial activity against linezolid-susceptible coagulase-negative Staphylococcus by CLSI method
[6] = tested on: Staphylococcus aureus; experiment: Antimicrobial activity against linezolid-susceptible Staphylococcus aureus by CLSI method
[7] = tested on: Staphylococcus aureus; experiment: Antimicrobial activity against oxacillin-resistant Staphylococcus aureus assessed as inhibition of microbial growth at 0.5 ug/ml by CLSI method
[8] = tested on: Staphylococcus; experiment: Antimicrobial activity against linezolid-resistant coagulase-negative Staphylococcus by CLSI method
[9] = tested on: Staphylococcus; experiment: Antimicrobial activity against linezolid-susceptible coagulase-negative Staphylococcus assessed as inhibition of microbial growth at 0.5 ug/ml by CLSI method
[10] = tested on: Staphylococcus aureus; experiment: Antimicrobial activity against linezolid-susceptible Staphylococcus aureus assessed as inhibition of microbial growth at =< 0.25 ug/ml by CLSI method
[11] = tested on: Staphylococcus; experiment: Antimicrobial activity against linezolid-resistant coagulase-negative Staphylococcus assessed as inhibition of microbial growth at 1 ug/ml by CLSI method
[12] = tested on: Staphylococcus; experiment: Antimicrobial activity against Linezolid and methicillin-resistant coagulase-negative Staphylococcus by CLSI method
[13] = tested on: Staphylococcus aureus; experiment: Antimicrobial activity against oxacillin-resistant Staphylococcus aureus by CLSI method
[14] = tested on: Staphylococcus; experiment: Antimicrobial activity against linezolid-resistant coagulase-negative Staphylococcus assessed as inhibition of microbial growth at 2 ug/ml by CLSI method
[15] = tested on: Staphylococcus; experiment: Antimicrobial activity against linezolid-resistant coagulase-negative Staphylococcus assessed as inhibition of microbial growth at 0.5 ug/ml by CLSI method
[16] = tested on: Staphylococcus; experiment: Antimicrobial activity against oxacillin-susceptible coagulase-negative Staphylococcus aureus by CLSI method
[17] = tested on: Staphylococcus; experiment: Antimicrobial activity against linezolid-resistant coagulase-negative Staphylococcus assessed as inhibition of microbial growth at 4 ug/ml by CLSI method
[18] = tested on: Staphylococcus aureus; experiment: Ratio of Linezolid MIC50 to compound MIC50 for Linezolid-susceptible Staphylococcus aureus
[19] = tested on: Staphylococcus; experiment: Antimicrobial activity against teicoplanin and methicillin-resistant coagulase-negative Staphylococcus by CLSI method
[20] = tested on: Staphylococcus; experiment: Antimicrobial activity against linezolid-resistant coagulase-negative Staphylococcus assessed as inhibition of microbial growth at =< 0.25 ug/ml by CLSI method
[21] = tested on: Staphylococcus; experiment: Antimicrobial activity against linezolid-susceptible coagulase-negative Staphylococcus assessed as inhibition of microbial growth at =< 0.25 ug/ml by CLSI method
[22] = tested on: Staphylococcus aureus; experiment: Antimicrobial activity against oxacillin-susceptible Staphylococcus aureus by CLSI method
[23] = tested on: Staphylococcus aureus; experiment: Antimicrobial activity against oxacillin-susceptible coagulase-negative Staphylococcus aureus assessed as inhibition of microbial growth at =< 0.25 ug/ml by CLSI method
[24] = tested on: Staphylococcus aureus; experiment: Ratio of Linezolid MIC90 to compound MIC90 for Linezolid-susceptible Staphylococcus aureus
[25] = tested on: Staphylococcus aureus; experiment: Antimicrobial activity against linezolid-resistant Staphylococcus aureus assessed as inhibition of microbial growth at 0.5 ug/ml by CLSI method
[26] = tested on: Staphylococcus aureus; experiment: Antimicrobial activity against methicillin-resistant Staphylococcus aureus by CLSI method
[27] = tested on: Staphylococcus aureus; experiment: Antimicrobial activity against oxacillin-susceptible Staphylococcus aureus assessed as inhibition of microbial growth at 0.5 ug/ml by CLSI method
[28] = tested on: Staphylococcus aureus; experiment: Ratio of Linezolid to compound activity for cfr-expressing methicillin-resistant Staphylococcus aureus
[29] = tested on: Staphylococcus aureus; experiment: Antimicrobial activity against oxacillin-resistant Staphylococcus aureus assessed as inhibition of microbial growth at =< 0.25 ug/ml by CLSI method

## Cn1nnc(-c2ccc(-c3ccc(N4C[C@H](CO)OC4=O)cc3F)cn2)n1 [TEDIZOLID]
[1]
  MIC50: 0.5 µg/mL (≈ 1.35 µM)
[2]
  inhibition at 0.5 µg/mL: 100%
[3]
  inhibition (INH): 99%
[4]
  MIC50: 0.125 µg/mL (≈ 0.338 µM)
  MIC90: 0.25 µg/mL (≈ 0.675 µM)
[5]
  MIC50: 0.25 µg/mL (≈ 0.675 µM)
  MIC90: 0.25 µg/mL (≈ 0.675 µM)
[6]
  MIC50: 0.25 µg/mL (≈ 0.675 µM)
  MIC90: 0.5 µg/mL (≈ 1.35 µM)
[7]
  inhibition at 0.5 µg/mL: 100%
[8]
  MIC50: 2 µg/mL (≈ 5.4 µM)
[9]
  inhibition at 0.5 µg/mL: 100%
[10]
  inhibition (INH): 83.1%
[11]
  inhibition at 1 µg/mL: 20%
[12]
  MIC: 0.25 µg/mL (≈ 0.675 µM)
[13]
  MIC50: 0.25 µg/mL (≈ 0.675 µM)
  MIC90: 0.5 µg/mL (≈ 1.35 µM)
[14]
  inhibition at 2 µg/mL: 80%
[15]
  inhibition at 0.5 µg/mL: 20%
[16]
  MIC50: 0.25 µg/mL (≈ 0.675 µM)
  MIC90: 0.25 µg/mL (≈ 0.675 µM)
[17]
  inhibition at 4 µg/mL: 100%
[18]
  Ratio: 8
[19]
  MIC: 0.25 µg/mL (≈ 0.675 µM)
[20]
  inhibition (INH): 20%
[21]
  inhibition (INH): 99.5%
[22]
  MIC50: 0.25 µg/mL (≈ 0.675 µM)
  MIC90: 0.25 µg/mL (≈ 0.675 µM)
[23]
  inhibition (INH): 100%
[24]
  Ratio: 4
[25]
  inhibition at 0.5 µg/mL: 100%
[26]
  MIC: 0.5 µg/mL (≈ 1.35 µM)
[27]
  inhibition at 0.5 µg/mL: 100%
[28]
  Ratio: 32
[29]
  inhibition (INH): 70%
